Active and inactive are the calls of the source.
Experiments:
[1] = molecular target: Glyceraldehyde-3-phosphate dehydrogenase (Homo sapiens, UniProt P04406)
Bcl-2-related protein A1 [2] = molecular target: T1, Bcl-2-related protein A1 (Mus musculus, UniProt Q07440); assay: small-molecule antagonists of Bfl-1/BH3 interaction – biochemical, TR-FRET, mouse Bfl-1, confirmation (AID 621);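 further: TR-FRET binding of GST-Bfl-1 to FITC-labelled Bid peptide via terbium antibody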
T1 sequence (Q07440 whole entry): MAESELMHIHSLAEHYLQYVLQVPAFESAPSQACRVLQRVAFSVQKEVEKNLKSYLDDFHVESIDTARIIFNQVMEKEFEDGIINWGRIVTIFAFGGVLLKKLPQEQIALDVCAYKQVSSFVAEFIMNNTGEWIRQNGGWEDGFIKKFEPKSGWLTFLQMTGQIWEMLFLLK

Bcl-2-related protein A1 [3] = molecular target: T1, Bcl-2-related protein A1; assay: Bfl-1 binding inhibitors, SAR follow-up, biochemical, fluorescence polarization (AID 1070)
[4] = molecular target: T2, Short transient receptor potential channel 4 (Mus musculus, UniProt Q9QUQ5); assay: calcium entry via TRPC4 opening agents – cell-based, HEK293 TRPC4/mu-opioid, Fluo-4 calcium, dose response (AID 434937); format: functional
T2 sequence (Q9QUQ5 whole entry): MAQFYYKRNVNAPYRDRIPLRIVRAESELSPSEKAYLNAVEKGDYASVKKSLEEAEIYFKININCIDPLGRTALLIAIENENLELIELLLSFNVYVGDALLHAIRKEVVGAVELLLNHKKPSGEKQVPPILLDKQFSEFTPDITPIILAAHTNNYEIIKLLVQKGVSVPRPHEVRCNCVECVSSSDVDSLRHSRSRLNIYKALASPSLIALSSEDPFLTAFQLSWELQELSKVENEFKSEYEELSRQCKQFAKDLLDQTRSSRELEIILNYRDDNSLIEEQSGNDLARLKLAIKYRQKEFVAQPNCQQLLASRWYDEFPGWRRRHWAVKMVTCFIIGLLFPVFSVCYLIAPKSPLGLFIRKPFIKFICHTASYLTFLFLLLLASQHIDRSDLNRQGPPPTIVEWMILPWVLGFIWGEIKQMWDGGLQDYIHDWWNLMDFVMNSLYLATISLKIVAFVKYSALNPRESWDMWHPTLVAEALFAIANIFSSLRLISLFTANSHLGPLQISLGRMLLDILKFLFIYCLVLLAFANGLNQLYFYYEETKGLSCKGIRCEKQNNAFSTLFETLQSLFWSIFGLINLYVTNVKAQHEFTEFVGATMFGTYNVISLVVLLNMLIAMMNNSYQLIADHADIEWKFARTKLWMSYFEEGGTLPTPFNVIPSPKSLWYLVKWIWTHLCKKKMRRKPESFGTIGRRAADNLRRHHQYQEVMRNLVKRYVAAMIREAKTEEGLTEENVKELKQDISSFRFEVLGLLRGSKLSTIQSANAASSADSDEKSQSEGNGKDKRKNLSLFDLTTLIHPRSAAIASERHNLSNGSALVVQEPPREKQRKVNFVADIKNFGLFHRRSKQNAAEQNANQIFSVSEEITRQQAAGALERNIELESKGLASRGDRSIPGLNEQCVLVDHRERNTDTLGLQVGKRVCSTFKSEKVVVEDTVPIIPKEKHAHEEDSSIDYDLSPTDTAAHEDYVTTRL

BJ [5] = assay: growth inhibition of engineered Ras-driven BJ cells – cell-based, alamar blue fluorescence, cherrypicked samples, dose response (AID 2631); format: functional; conditions: Homo sapiens;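 further: confirmatory dose-response assay in RAS-dependent BJ fibroblasts engineered with TERT, LT and ST, with cytotoxicity read by fluorescence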
BJ [6] = assay: BJ-TERT-LT-ST fibroblast viability loss – cell-based, RAS-independent, luminescence, dose response (AID 1935); format: functional; conditions: Homo sapiens;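 further: BJ fibroblasts immortalized with TERT plus LT and ST oncogenes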
[7] = Luminescence Cell-Based Dose Response HTS to Identify Inhibitors of 5'UTR Stem-Loop Driven Prion Protein mRNA Translation in H4 Neuroglioblastoma Cells. [Related pubchem assays: 1827 (Project Summary), 1813 (Primary HTS)]; format: functional
[8] = alpha-synuclein stem-loop luciferase translation blockers – H4 neuroglioma cells, luminescence, confirmation (AID 1988); format: functional, cell-based
BJ [9] = assay: cells; format: functional, cell-based; conditions: Homo sapiens
[10] = DRD fibroblast viability loss – cell-based, non-viral oncogenic, luminescence, dose response (AID 1934); format: functional; conditions: Homo sapiens
X-box-binding protein 1 = X-box-binding protein 1 (Homo sapiens, UniProt P17861); format: functional, Cricetulus griseus;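 further: confirmatory dose-response counter-screen serving a CHOP assay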
Chain of X-box-binding protein 1 (P17861 whole entry): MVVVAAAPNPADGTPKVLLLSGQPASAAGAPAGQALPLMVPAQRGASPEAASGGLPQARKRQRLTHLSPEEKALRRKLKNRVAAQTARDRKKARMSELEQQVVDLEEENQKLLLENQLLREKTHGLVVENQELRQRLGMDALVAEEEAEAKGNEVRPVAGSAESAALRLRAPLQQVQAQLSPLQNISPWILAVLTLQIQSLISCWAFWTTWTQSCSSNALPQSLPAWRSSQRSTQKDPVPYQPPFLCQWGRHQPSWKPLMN

BJ [11] = assay: BJ-TERT fibroblast viability loss – cell-based, RAS-independent, luminescence, dose response (AID 1933); format: functional; conditions: Homo sapiens
[12] = luciferase reporter signal suppression in cells – H4 neuroglioma cells, luminescence, dose response (AID 1990); format: functional, cell-based
[13] = molecular target: Intestinal-type alkaline phosphatase (Homo sapiens, UniProt P09923); assay: Dose Response confirmation of uHTS hits from a small molecule inhibitors of human intestinal alkaline phosphatase via a luminescent assay. [Related pubchem assays (depositor defined):AID2544, AID2574]; format: functional
Chain of Intestinal-type alkaline phosphatase (P09923 whole entry): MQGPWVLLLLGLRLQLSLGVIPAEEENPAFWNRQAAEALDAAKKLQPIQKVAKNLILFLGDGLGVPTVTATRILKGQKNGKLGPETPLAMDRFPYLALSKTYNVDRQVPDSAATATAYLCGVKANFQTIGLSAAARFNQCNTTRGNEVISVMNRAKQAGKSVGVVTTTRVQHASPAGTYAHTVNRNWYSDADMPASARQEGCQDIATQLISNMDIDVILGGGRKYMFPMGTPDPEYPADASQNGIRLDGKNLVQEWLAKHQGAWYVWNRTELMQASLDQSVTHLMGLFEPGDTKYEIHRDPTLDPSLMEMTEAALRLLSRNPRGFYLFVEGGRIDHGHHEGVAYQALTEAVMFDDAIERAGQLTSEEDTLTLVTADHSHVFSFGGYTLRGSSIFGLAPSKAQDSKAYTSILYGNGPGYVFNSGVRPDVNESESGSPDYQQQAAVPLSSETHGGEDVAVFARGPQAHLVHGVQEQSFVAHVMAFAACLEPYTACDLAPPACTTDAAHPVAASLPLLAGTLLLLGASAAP

[14] = reduction of Shn3 3'UTR-driven luciferase in osteoblasts – cell-based, Clone20 osteoblasts, firefly luciferase, cherry-picked, dose response (AID 624132); format: functional;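 further: firefly luciferase luminescence from reporter carrying the Shn3 3'UTR in osteoblasts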
[15] = molecular target: Nucleotide-binding oligomerization domain-containing protein 2 (Homo sapiens, UniProt Q9HC29); assay: inhibition of NOD2-driven NF-kB reporter – cell-based, luminescence, uHTS, HEK293 (AID 1566); format: functional
Chain of Nucleotide-binding oligomerization domain-containing protein 2 (Q9HC29 whole entry, the tested form may be a part): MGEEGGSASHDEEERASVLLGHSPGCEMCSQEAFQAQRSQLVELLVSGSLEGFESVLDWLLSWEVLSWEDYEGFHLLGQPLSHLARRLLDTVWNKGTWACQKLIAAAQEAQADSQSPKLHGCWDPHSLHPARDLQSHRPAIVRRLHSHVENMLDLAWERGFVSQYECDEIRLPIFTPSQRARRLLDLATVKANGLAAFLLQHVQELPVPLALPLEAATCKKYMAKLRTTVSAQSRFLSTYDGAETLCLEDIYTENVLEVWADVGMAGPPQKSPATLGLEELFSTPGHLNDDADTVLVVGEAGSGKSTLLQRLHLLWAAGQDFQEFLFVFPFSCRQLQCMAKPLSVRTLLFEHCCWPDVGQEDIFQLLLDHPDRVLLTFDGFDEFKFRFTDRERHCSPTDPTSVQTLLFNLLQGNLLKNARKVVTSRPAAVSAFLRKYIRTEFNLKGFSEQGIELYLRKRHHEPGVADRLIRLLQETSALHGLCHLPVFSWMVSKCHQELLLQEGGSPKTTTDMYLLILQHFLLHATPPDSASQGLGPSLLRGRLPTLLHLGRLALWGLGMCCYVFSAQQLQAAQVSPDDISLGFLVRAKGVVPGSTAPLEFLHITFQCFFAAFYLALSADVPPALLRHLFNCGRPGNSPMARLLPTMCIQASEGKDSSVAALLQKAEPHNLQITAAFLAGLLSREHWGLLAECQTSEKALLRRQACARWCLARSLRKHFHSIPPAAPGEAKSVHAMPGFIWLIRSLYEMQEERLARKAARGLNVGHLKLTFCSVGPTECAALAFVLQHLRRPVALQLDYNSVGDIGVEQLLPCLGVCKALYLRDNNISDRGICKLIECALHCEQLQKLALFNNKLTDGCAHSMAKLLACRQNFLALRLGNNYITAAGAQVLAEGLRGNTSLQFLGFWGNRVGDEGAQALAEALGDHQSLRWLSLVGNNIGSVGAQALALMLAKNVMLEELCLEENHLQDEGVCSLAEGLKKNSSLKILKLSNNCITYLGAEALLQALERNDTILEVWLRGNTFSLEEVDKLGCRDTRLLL

[16] = HIV-1 AD8 envelope cell-cell fusion blockers – cherry-pick, dose response (AID 652062); format: functional, cell-based;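 further: luciferase signal from cell-cell fusion driven by HIV-1 clade B AD8 Env; potency is for inhibitors of fusion seen as a drop in luminescence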
[17] = loss of viability in HepG2 cells – cell-based, CellTiter-Glo, cherry-picked, cytotoxicity control for Shn3 inhibitor project, dose response (AID 624134); format: functional
[18] = blockers of HIV-1 ZM109 envelope-driven cell-cell fusion – HeLa effector, CEM target cells, luciferase, cherry-pick, dose response (AID 652058); format: functional, cell-based;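 further: luciferase signal from HIV-1 Env mediated cell-cell fusion of effector and target cells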
HEK293 [19] = assay: inhibition of NOD1-driven NF-kB reporter – cell-based, luminescence, uHTS, primary screen (AID 1578); format: functional; conditions: Homo sapiens
[20] = non-specific 3'UTR reporter inhibition in Clone20-Shn3RL – cell-based, Renilla luciferase, cherry-picked, counter-screen for Shn3 inhibitor project, dose response (AID 624133); format: functional
HEK293 [21] = assay: NOD2 signaling inhibitors in MDP-stimulated cells, cell-based, uHTS, luminescence (AID 2001); format: functional; conditions: Homo sapiens
HEK293 [22] = assay: cells; format: functional, cell-based; conditions: Homo sapiens
HEK293 [23] = assay: cells; format: functional, cell-based; conditions: Homo sapiens; remark: listed apart in the source
HEK293 [24] = assay: cells; format: functional, cell-based; conditions: Homo sapiens; remark: listed apart in the source
[25] = Luminescence Cell-Based Dose Confirmation HTS to Identify Inhibitors of Platelet Dense Granule Release. [Related pubchem assays: 1663 (Primary HTS), 1678 (Summary of Project)]; format: functional
[26] = molecular target: Luciferin 4-monooxygenase (Photinus pyralis, UniProt P08659); assay: inhibition of purified Photinus pyralis luciferase – biochemical, luminescence, dose response (AID 1891)
Chain of Luciferin 4-monooxygenase (P08659 whole entry): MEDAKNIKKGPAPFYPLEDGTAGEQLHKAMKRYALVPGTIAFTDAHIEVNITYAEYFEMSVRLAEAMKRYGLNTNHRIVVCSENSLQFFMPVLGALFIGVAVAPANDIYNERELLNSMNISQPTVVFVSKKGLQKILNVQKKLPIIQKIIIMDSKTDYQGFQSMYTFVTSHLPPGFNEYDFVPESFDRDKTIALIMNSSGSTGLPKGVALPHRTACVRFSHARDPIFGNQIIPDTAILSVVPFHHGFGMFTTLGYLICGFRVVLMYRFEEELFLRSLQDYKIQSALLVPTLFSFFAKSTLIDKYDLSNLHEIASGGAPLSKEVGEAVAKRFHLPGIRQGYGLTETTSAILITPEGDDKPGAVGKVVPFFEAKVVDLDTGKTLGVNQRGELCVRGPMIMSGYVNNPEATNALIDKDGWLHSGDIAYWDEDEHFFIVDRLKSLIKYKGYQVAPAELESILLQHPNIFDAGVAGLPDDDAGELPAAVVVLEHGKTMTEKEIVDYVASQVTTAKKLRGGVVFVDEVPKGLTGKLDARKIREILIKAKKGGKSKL

[27] = molecular target: T3, Calpain-2 catalytic subunit (Sus scrofa, UniProt P43367); assay: m-calpain protease blockers, concentration series – biochemical, fluorogenic peptide substrate, dose response (AID 1420); format: functional
T3 sequence (P43367 whole entry): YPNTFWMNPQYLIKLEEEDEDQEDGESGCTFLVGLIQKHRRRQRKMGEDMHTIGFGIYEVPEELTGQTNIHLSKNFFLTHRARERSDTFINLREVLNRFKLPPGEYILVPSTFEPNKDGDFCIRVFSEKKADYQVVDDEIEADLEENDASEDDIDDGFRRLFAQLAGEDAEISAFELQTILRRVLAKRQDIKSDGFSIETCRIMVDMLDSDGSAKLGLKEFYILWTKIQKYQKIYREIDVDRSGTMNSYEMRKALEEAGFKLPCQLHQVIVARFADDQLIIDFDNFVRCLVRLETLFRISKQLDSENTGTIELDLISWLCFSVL

Nonstructural protein 1 = Nonstructural protein 1 (Influenza A virus, UniProt Q194T2); format: functional, Influenza A virus (A/California/07/2009(H1N1))
Chain of Nonstructural protein 1 (Q194T2 whole entry): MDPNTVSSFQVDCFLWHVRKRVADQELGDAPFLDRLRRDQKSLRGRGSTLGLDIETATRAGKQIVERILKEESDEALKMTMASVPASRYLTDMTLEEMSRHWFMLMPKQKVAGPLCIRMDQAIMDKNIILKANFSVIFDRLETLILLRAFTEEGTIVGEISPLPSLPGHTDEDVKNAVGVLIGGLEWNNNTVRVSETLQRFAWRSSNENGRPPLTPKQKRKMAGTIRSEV

Chain of Glyceraldehyde-3-phosphate dehydrogenase (P04406 whole entry): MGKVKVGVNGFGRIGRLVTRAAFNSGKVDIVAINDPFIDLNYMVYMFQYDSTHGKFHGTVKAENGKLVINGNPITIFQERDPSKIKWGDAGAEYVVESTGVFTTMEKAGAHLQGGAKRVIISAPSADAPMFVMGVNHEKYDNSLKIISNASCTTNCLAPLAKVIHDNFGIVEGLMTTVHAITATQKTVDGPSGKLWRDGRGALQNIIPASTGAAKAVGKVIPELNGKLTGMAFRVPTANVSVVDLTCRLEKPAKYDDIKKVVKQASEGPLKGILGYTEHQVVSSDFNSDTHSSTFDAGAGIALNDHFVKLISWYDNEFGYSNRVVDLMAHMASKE

In the case of `CN1CCN(C2=C(Cl)C(=O)N(c3cccc(Cl)c3Cl)C2=O)CC1`, the IC50 [1] is reported as > 100 µM (not active), the IC50 (Bcl-2-related protein A1 [2]) is reported as 2.56 µM (active) and the IC50 (Bcl-2-related protein A1 [3]) is reported as 8.74 µM (active).
For `Cc1ccc(-n2cc(CNCC3CC(=O)N(C4CC4)C3)c(-c3cccc(C)c3)n2)cc1` (centres undefined), the EC50 [4] was 6.68 µM (active).
With `Cc1ccc(-c2nn(CC(=O)NCc3cc(-c4nn(C)c(=O)c5ccccc45)ccc3C)c(=O)c3ccccc23)cc1` the EC50 (BJ [5]) was > 133 µM (inactive), the EC50 (BJ [6]) was 5.6 µM (inconclusive) and the EC50 [7] was 6.28 µM (active). The EC50 [8] was 6.81 µM (active), the EC50 (BJ [9]) was 8.99 µM (active) and the EC50 [10] was 6.29 µM (inconclusive). The “Absolute IC50 (XBP1)” value (X-box-binding protein 1) was 10 µM, the EC50 (BJ [11]) was 4.25 µM (active) and the EC50 [12] was 8.15 µM (active).
For `COc1cc(/C=C2\SC(=S)N(N(C)c3ccccc3)C2=O)ccc1O`, the IC50 [13] was 13.1 µM (inactive).
For `Cc1sc2ncnc(N3CCN(S(=O)(=O)c4ccc(Br)cc4)CC3)c2c1C`, the AC50 [14] was 3.59 µM (active), the EC50 [15] was 4.22 µM (active) and the AC50 [16] was 21.2 µM (active). The AC50 [17] was 47.8 µM (active), the AC50 [18] was 21.5 µM (active) and the EC50 (HEK293 [19]) was 4.21 µM (active). For the same compound, the AC50 [20] was 6.05 µM (active), the IC50 (HEK293 [21]) was 5.47 µM (active) and the IC50 (HEK293 [22]) was 4.16 µM (active). For the same compound, the IC50 (HEK293 [23]) was 11.6 µM (active) and the IC50 (HEK293 [24]) was > 20 µM (inactive).
For `CCN(CC)c1ccc(/C=C(\C#N)C(N)=S)cc1`, the EC50 [25] was > 112 µM (not active), the EC50 [26] was 22.7 µM (active) and the IC50 [27] was 5.92 µM (not active). The IC50 (Nonstructural protein 1) was 39.1 µM (active).
